In PubChem BioAssay (NCI):
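Exposure lasted 48 hours, with cells grown in 96-well plates and compounds tested at five concentrations. GI50 is the concentration that inhibits growth by half. TGI is the concentration that stops growth completely.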

Key:
Test in all cases: NCI tumour cell line growth inhibition, 48 h
M19-MEL melanoma = test system: M19-MEL melanoma
RXF-631 renal = test system: RXF-631 renal
KM20L2 colon = test system: KM20L2 colon
DMS 273 small cell lung = test system: DMS 273 small cell lung
HOP-18 NSCLC = test system: HOP-18 NSCLC
DMS 114 small cell lung = test system: DMS 114 small cell lung
XF 498 CNS = test system: XF 498 CNS
P388/ADR leukemia = test system: P388/ADR leukemia
SN12K1 renal = test system: SN12K1 renal
P388 leukemia = test system: P388 leukemia

Compound	TGI (M19-MEL melanoma) [µM]	TGI (RXF-631 renal) [µM]	TGI (KM20L2 colon) [µM]	TGI (DMS 273 small cell lung) [µM]	TGI (HOP-18 NSCLC) [µM]	TGI (DMS 114 small cell lung) [µM]	TGI (XF 498 CNS) [µM]	GI50 (XF 498 CNS) [µM]	TGI (P388/ADR leukemia) [µM]	TGI (SN12K1 renal) [µM]	TGI (P388 leukemia) [µM]
CC(=O)Nc1ccc(C(=O)NN2C(=O)C(Cl)C2c2cccc([N+](=O)[O-])c2)cc1 (stereo unspecified)	> 100										
Cn1c2[n+](c3nc(N)[nH]c(=O)c31)C1OC(C2)C(O)C1O (stereo unspecified)	> 100	> 100	> 100	> 100	> 100	> 100	> 100				
COc1cccc(/C=N/[N-]C(N)=O)c1[O-].[Ni+2].[OH3+]			2.15				0.331	0.152			
Nc1nnc(CCC(=O)Nc2cc(Cl)ccc2Cl)n1N	> 100	> 100	> 100	> 100	> 100	> 100	> 100				
COc1cc(C2c3cc4c(cc3[C@@H](Nc3ccc(Oc5ccccc5)cc3)C3COC(=O)[C@H]23)OCO4)cc(OC)c1O (stereo partly specified)	> 100		> 24.3		> 100	> 22.7	> 59.8		3.49	> 100	1.88
